Test results published in PMC10216263, “Favorable Preclinical Pharmacological Profile of a Novel Antimalarial Pyrrolizidinylmethyl Derivative of 4-amino-7-chloroquinoline with Potent In Vitro and In Vivo Activities” (Biomolecules, 2023).

Assays:
[1] = Intrinsic clearance in hepatocytes; format: in vitro ADME
Experimental: (§1) An automatic liquid handling system (Multiprobe II EX, Packard) was used for sampling. At 0, 10, 20, 30, 60 and 90 min, […] aliquots of the incubates were taken and added with […] of ice-cold ACN and […] of 1 µM warfarin in ACN (internal standard), and samples centrifuged at 2000 rpm for 20 min. The analysis of supernatant was conducted using LC-MS/MS. MG3 was incubated in the medium under the same conditions to evaluate the chemical stability; 7-ethoxycoumarin (7-ETC) 1 µM and 7-hydroxycoumarin (7-HC) 30 µM were utilized as positive controls for Phase I and Phase II activities. […] Half-life and CLint were determined from the concentration (counts) remaining at the different sampling points using the LC-MS/MS method. The slope was calculated using linear regression analysis of the curve (natural logarithmic area of the compound remaining against the time) and converted into the half-life (t1/2) and CLint expressed as µL/min/million cells and mL/min/kg, respectively.

[2] = tested on: dog hepatocytes; assay: Intrinsic clearance in hepatocytes; format: in vitro ADME; settings: 1 µM
Experimental: as §1

[3] = tested on: human hepatocytes; assay: Intrinsic clearance in hepatocytes; format: in vitro ADME; settings: 1 µM
Experimental: as §1

[4] = tested on: monkey hepatocytes; assay: Intrinsic clearance in hepatocytes; format: in vitro ADME; settings: 1 µM
Experimental: as §1

[5] = tested on: mouse hepatocytes; assay: Intrinsic clearance in hepatocytes; format: in vitro ADME; settings: 1 µM
Experimental: as §1

[6] = tested on: rat hepatocytes; assay: Intrinsic clearance in hepatocytes; format: in vitro ADME; settings: 1 µM
Experimental: as §1

[7] = Plasma protein binding by ultrafiltration, human, rat and dog; format: in vitro ADME; settings: male, SD (rat), Beagle (dog), read-out: free fraction
Experimental: Plasma protein binding was performed via ultrafiltration (30,000 D cutoff, Amicon, Merck) with heparinized blood samples (male SD rats, Charles River Italy, and male Beagle dogs, Marshall Farms, Europe, Lyon, France) and fresh and frozen heparinized human blood samples collected from fasted healthy male subjects (at least two subjects for plasma samples), were supplied by AAI, Germany. MG3 final concentrations of 100, 300 and 1000 ng/mL were prepared using a 10 mg/mL stock solution while control samples at the same concentrations diluted in DPBS buffer (Dulbecco’s Phosphate Buffered Saline, Sigma-Aldrich) to evaluate the recovery. […] The percentage of bound drug (% Fbound) and of unbound drug (% Ffree) was determined using the following equations: % Fbound = [(Conc. Total–Conc. Free)/Conc. […] Total is the compound concentration determined in plasma and Conc. Free is the compound concentration determined in the ultrafiltrated samples. Results were expressed as % of binding and % of free fraction (single values and mean ± SD). […] Blood to plasma ratio was calculated as: Conc. in blood/Conc. in plasma; where, Conc. is the compound concentration determined in blood and in plasma at the same time of incubation.

[8] = 7-day oral dose range finding (DRF) and systemic exposure in rats; format: in vivo, Sprague Dawley rats
Experimental: Seven days oral DRF in rats and dog, and five days oral DRF in Non-Human Primates (NHP) were performed using Sprague Dawley rats (n = 3/time point) of both sexes, one male and one female dog Beagle (Marshall/Green Hill) and one male and one female monkeys/Cynomolgus (Noveprim Ltd., Mahebourg Mauritius,). MG3 was administered as oral suspension in 0.5% methocel in water (400 cP viscosity) at the following doses: 30, 60 and 120 mg/kg/day for 7 days (rat), 15 and 30 mg/kg/days for 7 days (dog) and 25, 50 and 75 mg/kg/day (NHP). No Observed Effects Levels (NOEL) were determined. Mortality, behavior, and general conditions were observed daily. Body weight was recorded pre-test, and on Days 1, 4 and 7. Food consumption was recorded from Days 1 to 4 and 4 to 7. Hematological and clinical chemistry examinations were performed on Day 8. All animals were sacrificed under anesthesia at the end of the treatment period on Day 8 of study. Post-mortem examinations included necropsy, collection, and histological examination performed of selected organs/tissues.
Systemic exposure was measured in three additional rats/sex/group at different time-points up to 24 and 48 h after the treatment and on Days 1 and 7, respectively.

[9] = tested on: P. falciparum 3D7 (CQ-S); assay: In vitro combination study (isobologram, ∑FIC); format: cell-based
[10] = tested on: P. berghei ANKA; assay: Oral curative activity against P. berghei ANKA; format: in vivo, P. berghei in mice
[11] = biological target: CYP2C19 (Homo sapiens, UniProt P33261); assay: in vitro
CYP2C19, sequence (P33261 whole entry): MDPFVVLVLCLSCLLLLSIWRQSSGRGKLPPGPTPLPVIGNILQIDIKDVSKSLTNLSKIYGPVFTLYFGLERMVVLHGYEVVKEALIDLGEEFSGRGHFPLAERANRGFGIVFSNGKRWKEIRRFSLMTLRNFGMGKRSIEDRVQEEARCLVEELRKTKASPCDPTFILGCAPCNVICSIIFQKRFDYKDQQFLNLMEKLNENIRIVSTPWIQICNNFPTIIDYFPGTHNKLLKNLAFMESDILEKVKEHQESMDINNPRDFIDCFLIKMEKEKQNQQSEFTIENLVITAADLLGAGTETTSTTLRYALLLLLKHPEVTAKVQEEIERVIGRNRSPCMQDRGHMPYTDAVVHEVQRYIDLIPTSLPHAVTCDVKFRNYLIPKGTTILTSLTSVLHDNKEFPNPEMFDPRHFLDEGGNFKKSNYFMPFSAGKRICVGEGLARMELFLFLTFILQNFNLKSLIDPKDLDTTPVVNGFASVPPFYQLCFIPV

[12] = male, Sprague Dawley, rat, in vivo, po, 30 mg/kg/day

With `Clc1ccc2c(NCC34CCCN3CCC4)ccnc2c1` [MG3, 7-Chloro-N-((hexahydro-1H-pyrrolizin-7a-yl)methyl)quinolin-4-amine] the CLint scaled at 1 µM ([1]; dog hepatocytes) was 111 mL/min/kg, the CLint scaled at 1 µM ([1]; human hepatocytes) was 4.9 mL/min/kg and the CLint scaled at 1 µM ([1]; monkey hepatocytes) was 44 mL/min/kg. For the same molecule, the CLint scaled at 1 µM ([1]; mouse hepatocytes) was 196 mL/min/kg, the CLint scaled at 1 µM ([1]; rat hepatocytes) was 51 mL/min/kg and the Half/life [2] was 0.8 h. For the same molecule, the Half/life [3] was 5.67 h, the Half/life [4] was 1.43 h and the Half/life [5] was 0.517 h. For the same molecule, the Half/life [6] was 1.08 h, the fraction unbound [7] was 0.16 to 0.33 and the mortality ([8]; 30, 60, and 120 mg/kg/day oral, 7 days) was “no mortality occurred”. For the same molecule, the MTD at 7 days ([8]; both sexes, Sprague Dawley, rat, in vivo, oral, 7 days, rats, read-out: maximum tolerated dose (MTD)) was 120 mg/kg/day, the AUC(0-t) ([8]; female, Sprague Dawley, rat, in vivo, po, 30 mg/kg/day, AUC0–24) was 2560 ± 650 ng·h/mL and the AUC(0-t) ([8]; female, Sprague Dawley, rat, in vivo, po, 30 mg/kg/day, AUC0–48) was 3800 ± 1000 ng·h/mL. For the same molecule, the Cmax ([8]; female, Sprague Dawley, rat, in vivo, po, 30 mg/kg/day) was 149 ± 34 ng/mL, the AUC(0-t) ([8]; female, Sprague Dawley, rat, in vivo, po, 60 mg/kg/day, AUC0–24) was 8630 ± 870 ng·h/mL and the AUC(0-t) ([8]; female, Sprague Dawley, rat, in vivo, po, 60 mg/kg/day, AUC0–48) was 15000 ± 900 ng·h/mL. The Cmax ([8]; female, Sprague Dawley, rat, in vivo, po, 60 mg/kg/day) was 646 ± 201 ng/mL, the AUC(0-t) ([8]; female, Sprague Dawley, rat, in vivo, po, 120 mg/kg/day, AUC0–24) was 19400 ± 7500 ng·h/mL and the AUC(0-t) ([8]; female, Sprague Dawley, rat, in vivo, po, 120 mg/kg/day, AUC0–48) was 29800 ± 9600 ng·h/mL. The Cmax ([8]; female, Sprague Dawley, rat, in vivo, po, 120 mg/kg/day) was 1570 ± 270 ng/mL, the AUC(0-t) ([8]; female, Sprague-Dawley, rat, in vivo, po, 30 mg/kg/day, AUC0–24) was 2530 ± 500 ng·h/mL and the AUC(0-t) ([8]; female, Sprague-Dawley, rat, in vivo, po, 60 mg/kg/day, AUC0–24) was 4740 ± 770 ng·h/mL. It also gave a Cmax ([8]; female, Sprague-Dawley, rat, in vivo, po, 60 mg/kg/day) of 259 ± 46 ng/mL, an AUC(0-t) ([8]; female, Sprague-Dawley, rat, in vivo, po, 120 mg/kg/day, AUC0–24) of 5210 ± 1600 ng·h/mL and a Cmax ([8]; female, Sprague-Dawley, rat, in vivo, po, 120 mg/kg/day) of 411 ± 288 ng/mL. The “AUC0–24” value [8, 12] was 1880 ± 190 ng·h/mL, the AUC(0-t) ([8]; male, Sprague Dawley, rat, in vivo, po, 30 mg/kg/day, AUC0–24) was 1880 ± 380 ng·h/mL and the AUC(0-t) ([8]; male, Sprague Dawley, rat, in vivo, po, 30 mg/kg/day, AUC0–48) was 2460 ± 550 ng·h/mL. For the same molecule, the Cmax [8, 12] was 140 ± 30 ng/mL, the AUC(0-t) ([8]; male, Sprague Dawley, rat, in vivo, po, 60 mg/kg/day, AUC0–24) was 5090 ± 450 ng·h/mL and the AUC(0-t) ([8]; male, Sprague Dawley, rat, in vivo, po, 60 mg/kg/day, AUC0–48) was 7330 ± 310 ng·h/mL. The Cmax ([8]; male, Sprague Dawley, rat, in vivo, po, 60 mg/kg/day) was 321 ± 50 ng/mL, the AUC(0-t) ([8]; male, Sprague Dawley, rat, in vivo, po, 120 mg/kg/day, AUC0–24) was 17400 ± 3200 ng·h/mL and the AUC(0-t) ([8]; male, Sprague Dawley, rat, in vivo, po, 120 mg/kg/day, AUC0–48) was 27500 ± 3900 ng·h/mL. The Cmax ([8]; male, Sprague Dawley, rat, in vivo, po, 120 mg/kg/day) was 1090 ± 260 ng/mL, the AUC(0-t) ([8]; male, Sprague-Dawley, rat, in vivo, po, 60 mg/kg/day, AUC0–24) was 3530 ± 180 ng·h/mL and the Cmax ([8]; male, Sprague-Dawley, rat, in vivo, po, 60 mg/kg/day) was 220 ± 10 ng/mL. For the same molecule, the AUC(0-t) ([8]; male, Sprague-Dawley, rat, in vivo, po, 120 mg/kg/day, AUC0–24) was 3840 ± 700 ng·h/mL, the Cmax ([8]; male, Sprague-Dawley, rat, in vivo, po, 120 mg/kg/day) was 209 ± 49 ng/mL and the food consumption ([8]; rat, in vivo) was “Minimal to moderate decrease in food consumption”. The “clinical chemistry on Day 8” value ([8]; rat, in vivo, 120 mg/kg/day) was “slight to moderate increase in ALT and AST”, the “systemic exposure in females higher than in males” value ([8]; rat, in vivo, po) was “about two-fold” and the “mortality and liver toxicity” value ([8]; up to 60 mg/kg, 7-day oral toxicity study) was “no mortality and no clinical evidence of liver toxicity”. The “Mean ∑FIC50 (95% CI)” value ([9]; in combination with ASN, 3D7, IC50 level) was 1.43 (1.30 – 1.55), the “Mean ∑FIC50 (95% CI)” value ([9]; in combination with DHA, 3D7, IC50 level) was 1.49 (1.33 – 1.65) and the “Mean ∑FIC50 (95% CI)” value ([9]; in combination with RKA-182, 3D7, IC50 level) was 1.45 (1.17 – 1.73). The “interaction (isobologram)” value ([9]; in combination with azitromycin, 3D7 (CQ-S)) was “additive”, the “prolonged mice survival compared to CQ, amodiaquine or artesunate” value ([10]; 30 mg/kg for 3 times) was “approximately 50%” and the curative activity ([10]; 30 mg/kg for 3 times, P. berghei-infected mice) was “not curative”. The “% Suppression of parasitaemia (on day 4 post infection)” value ([10]; oral dose 3 x 30 mg/kg) was 100%, the “Average survival (days) after infection” value ([10]; oral dose 3 x 30 mg/kg, individual values in brackets) was 22 (17, 23, 23, 24, 24) days and the inhibition at 3 µM [11] was under 3%.
